According to patent US11753407B2, “Compounds for treating spinal muscular atrophy” (PTC Therapeutics, Inc., priority 2012, dated 2023):

Tests used:
[1] = system: Smn protein in SMA patient fibroblast cells (GM03813); assay: Smn protein assay in cultured cells (SMN HTRF); type: cell-based, human; details: SMA patient fibroblast cells, 48 hours; for maximum fold (Fold) increase of Smn protein: 7-point concentration data, fold relative to vehicle control; for EC1.5x for Smn protein expression: 7-point concentration curve, SMN HTRF, concentration producing 1.5 times Smn protein vs DMSO vehicle control
Outline: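 Cells were cultured 72 h, seeded at 5,000/well and dosed with seven concentrations (3.16-fold apart) for 48 h. HTRF on lysates, read at 665 and 620 nm, gave blank-corrected ΔF values relative to DMSO. Potency is reported as EC1.5×, efficacy as maximal fold Smn increase.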

[2] = system: SMN2 minigene mRNA (SMN2-A minigene) in HEK293H cells; assay: SMN2 minigene mRNA splicing RT-qPCR assay in cultured cells; type: cell-based, human; details: Homo sapiens, HEK293-H; concentration increasing full length SMN2 mRNA 1.5-fold relative to vehicle-treated cells; HEK293H cells with SMN2-A minigene, 24 hours, 7-point concentration data; read-out: EC1.5x for production of full length SMN2 mRNA
Outline: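 EC1.5× values derive from a 24 h treatment of SMN2-A minigene HEK293H cells and GAPDH-normalized RT-qPCR of exon 7-included minigene mRNA relative to vehicle-treated cells.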

Structure (SMILES) | maximum fold (Fold) increase of Smn protein [1] | melting point [°C] | EC (1.5-fold increase) [2] [µM] | EC1.5x for Smn protein expression [1]
COc1ccc(-c2cc(=O)n3cc(N4CCCN(C)CC4)ccc3n2)cc1OC [Compound 11, 2-(3,4-dimethoxyphenyl)-7-(4-methyl-1,4-diazepan-1-yl)-4H-pyrido[1,2-a]pyrimidin-4-one] | *** (a fold increase between >1.35 and ≤1.5 is indicated by three stars (***)) | 166 to 168 | 0.3 to 1 | –
COc1ccc(-c2cc(=O)n3cc(N4CCN[C@@H](C)C4)ccc3n2)cc1 [Compound 12, 2-(4-methoxyphenyl)-7-[(3S)-3-methylpiperazin-1-yl]-4H-pyrido[1,2-a]pyrimidin-4-one] | *** (a fold increase between >1.35 and ≤1.5 is indicated by three stars (***)) | 158 to 160 | 0.3 to 1 | –
COc1ccc(-c2cc(=O)n3cc(N4CCN(C)CC4)ccc3n2)cc1OC [Compound 13, 2-(3,4-dimethoxyphenyl)-7-(4-methylpiperazin-1-yl)-4H-pyrido[1,2-a]pyrimidin-4-one] | ** (a fold increase between >1.2 and ≤1.35 is indicated by two stars (**)) | 183 to 185 | 1 to 3 | –
COc1ccc(-c2cc(=O)n3cc(N4C[C@@H](C)N[C@@H](C)C4)ccc3n2)cc1OC [Compound 14, 2-(3,4-dimethoxyphenyl)-7-[(3R,5S)-3,5-dimethylpiperazin-1-yl]-4H-pyrido[1,2-a]pyrimidin-4-one] | *** (a fold increase between >1.35 and ≤1.5 is indicated by three stars (***)) | 182 to 187 | 1 to 3 | –
CCCN1CCN(c2ccc3nc(-c4ccc(OC)c(OC)c4)cc(=O)n3c2)CC1 [Compound 15, 2-(3,4-dimethoxyphenyl)-7-(4-propylpiperazin-1-yl)-4H-pyrido[1,2-a]pyrimidin-4-one] | *** (a fold increase between >1.35 and ≤1.5 is indicated by three stars (***)) | 185 to 189 | 1 to 3 | –
COc1ccc(-c2cc(=O)n3cc(N4CCCN(C)CC4)ccc3n2)cc1 [Compound 16, 2-(4-methoxyphenyl)-7-(4-methyl-1,4-diazepan-1-yl)-4H-pyrido[1,2-a]pyrimidin-4-one] | * (A maximum fold increase of ≤1.2 is indicated by one star (*)) | 137 to 141 | 1 to 3 | –
O=c1cc(-c2ccc3c(c2)OCO3)nc2ccc(N3CCNCC3)cn12 [Compound 18, 2-(1,3-benzodioxol-5-yl)-7-(piperazin-1-yl)-4H-pyrido[1,2-a]pyrimidin-4-one] | **** (a fold increase between >1.5 and ≤1.65 is indicated by four stars (****)) | 198 to 201 | 0.3 to 1 | ** (an EC1.5× between >1 μM and ≤3 μM is indicated by two stars (**))
CN1CCN(c2ccc3nc(-c4ccc5c(c4)OCO5)cc(=O)n3c2)CC1 [Compound 19, 2-(1,3-benzodioxol-5-yl)-7-(4-methylpiperazin-1-yl)-4H-pyrido[1,2-a]pyrimidin-4-one] | ** (a fold increase between >1.2 and ≤1.35 is indicated by two stars (**)) | 235 to 237 | 1 to 3 | –
C[C@@H]1CN(c2ccc3nc(-c4ccc5c(c4)OCO5)cc(=O)n3c2)CCN1 [Compound 20, 2-(1,3-benzodioxol-5-yl)-7-[(3R)-3-methylpiperazin-1-yl]-4H-pyrido[1,2-a]pyrimidin-4-one] | **** (a fold increase between >1.5 and ≤1.65 is indicated by four stars (****)) | 195 to 197 | 1 to 3 | ** (an EC1.5× between >1 μM and ≤3 μM is indicated by two stars (**))
C[C@@H]1CN(c2ccc3nc(-c4ccc5c(c4)OCO5)cc(=O)n3c2)C[C@H](C)N1 [Compound 21, 2-(1,3-benzodioxol-5-yl)-7-[(3R,5S)-3,5-dimethylpiperazin-1-yl]-4H-pyrido[1,2-a]pyrimidin-4-one] | * (A maximum fold increase of ≤1.2 is indicated by one star (*)) | 198 to 201 | 3 to 30 | –
COc1cccc(-c2cc(=O)n3cc(N4CCNCC4)ccc3n2)c1 [Compound 22, 2-(3-methoxyphenyl)-7-(piperazin-1-yl)-4H-pyrido[1,2-a]pyrimidin-4-one] | *** (a fold increase between >1.35 and ≤1.5 is indicated by three stars (***)) | 147 to 149 | 0.3 to 1 | ** (an EC1.5× between >1 μM and ≤3 μM is indicated by two stars (**))
COc1cccc(-c2cc(=O)n3cc(N4CCN(C)CC4)ccc3n2)c1 [Compound 23, 2-(3-methoxyphenyl)-7-(4-methylpiperazin-1-yl)-4H-pyrido[1,2-a]pyrimidin-4-one] | *** (a fold increase between >1.35 and ≤1.5 is indicated by three stars (***)) | 173 to 175 | 3 to 30 | –
COc1cccc(-c2cc(=O)n3cc(N4CCN[C@H](C)C4)ccc3n2)c1 [Compound 24, 2-(3-methoxyphenyl)-7-[(3R)-3-methylpiperazin-1-yl]-4H-pyrido[1,2-a]pyrimidin-4-one] | *** (a fold increase between >1.35 and ≤1.5 is indicated by three stars (***)) | 164 to 166 | 1 to 3 | * (An EC1.5× for Smn protein expression between >3 μM and ≤10 μM is indicated by one star (*))
COc1cccc(-c2cc(=O)n3cc(N4C[C@@H](C)N[C@@H](C)C4)ccc3n2)c1 [Compound 25, 7-[(3R,5S)-3,5-dimethylpiperazin-1-yl]-2-(3-methoxyphenyl)-4H-pyrido[1,2-a]pyrimidin-4-one] | * (A maximum fold increase of ≤1.2 is indicated by one star (*)) | 189 to 191 | 1 to 3 | –
CCN1CCN(c2ccc3nc(-c4cccc(OC)c4)cc(=O)n3c2)CC1 [Compound 26, 7-(4-ethylpiperazin-1-yl)-2-(3-methoxyphenyl)-4H-pyrido[1,2-a]pyrimidin-4-one] | ** (a fold increase between >1.2 and ≤1.35 is indicated by two stars (**)) | 158 to 160 | 3 to 30 | –
COc1cccc(-c2cc(=O)n3cc(N4CCCN(C)CC4)ccc3n2)c1 [Compound 28, 2-(3-methoxyphenyl)-7-(4-methyl-1,4-diazepan-1-yl)-4H-pyrido[1,2-a]pyrimidin-4-one] | ** (a fold increase between >1.2 and ≤1.35 is indicated by two stars (**)) | 130 to 132 | 3 to 30 | –
COc1ccc(-c2cc(=O)n3cc(N4CCN[C@@H](C)C4)ccc3n2)cc1OC [Compound 30, 2-(3,4-dimethoxyphenyl)-7-[(3S)-3-methylpiperazin-1-yl]-4H-pyrido[1,2-a]pyrimidin-4-one] | **** (a fold increase between >1.5 and ≤1.65 is indicated by four stars (****)) | 153 to 158 | < 0.1 | ** (an EC1.5× between >1 μM and ≤3 μM is indicated by two stars (**))
O=c1cc(-c2ccc3c(c2)OCCO3)nc2ccc(N3CCNCC3)cn12 [Compound 31, 2-(2,3-dihydro-1,4-benzodioxin-6-yl)-7-(piperazin-1-yl)-4H-pyrido[1,2-a]pyrimidin-4-one] | * (A maximum fold increase of ≤1.2 is indicated by one star (*)) | 230 to 232 | 1 to 3 | –
C[C@H]1CN(c2ccc3nc(-c4ccc5c(c4)OCCO5)cc(=O)n3c2)CCN1 [Compound 32, 2-(2,3-dihydro-1,4-benzodioxin-6-yl)-7-[(3S)-3-methylpiperazin-1-yl]-4H-pyrido[1,2-a]pyrimidin-4-one] | * (A maximum fold increase of ≤1.2 is indicated by one star (*)) | 205 to 207 | 1 to 3 | –
O=c1cc(-c2ccccc2)nc2ccc(N3CCNCC3)cn12 [Compound 33, 2-phenyl-7-(piperazin-1-yl)-4H-pyrido[1,2-a]pyrimidin-4-one] | * (A maximum fold increase of ≤1.2 is indicated by one star (*)) | 151 to 153 | 1 to 3 | –
C[C@H]1CN(c2ccc3nc(-c4ccccc4)cc(=O)n3c2)CCN1 [Compound 34, 7-[(3S)-3-methylpiperazin-1-yl]-2-phenyl-4H-pyrido[1,2-a]pyrimidin-4-one] | ** (a fold increase between >1.2 and ≤1.35 is indicated by two stars (**)) | 170 to 173 | 1 to 3 | –
C[C@@H]1CN(c2ccc3nc(-c4ccc5c(c4)OCCO5)cc(=O)n3c2)CCN1 [Compound 35, 2-(2,3-dihydro-1,4-benzodioxin-6-yl)-7-[(3R)-3-methylpiperazin-1-yl]-4H-pyrido[1,2-a]pyrimidin-4-one] | * (A maximum fold increase of ≤1.2 is indicated by one star (*)) | 212 to 214 | 3 to 30 | –
